Paper PMC9236248, “Ucl fimbriae regulation and glycan receptor specificity contribute to gut colonisation by extra-intestinal pathogenic Escherichia coli” (PLoS Pathogens, 2022)
Where “and” joins values, the source holds several entries; their conditions need not be identical. Equal values may be shown once.

Assays:
UcaD^LD = UcaD^LD (Proteus mirabilis, UniProt B4EV65); assay: Soaking of pre-formed UcaD^LD crystals with monosaccharides (X-ray crystallography); format: binding, P. mirabilis PM54; settings: 0.1-0.2 M monosaccharide, 48 hours soak
Chain of UcaD^LD (B4EV65 entry or part of it): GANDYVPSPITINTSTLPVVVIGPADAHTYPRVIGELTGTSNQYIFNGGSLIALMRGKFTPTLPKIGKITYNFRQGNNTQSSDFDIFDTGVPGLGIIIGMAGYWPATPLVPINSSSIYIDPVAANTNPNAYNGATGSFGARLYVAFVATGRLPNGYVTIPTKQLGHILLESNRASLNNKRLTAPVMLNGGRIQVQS
Method: Crystals were produced by the hanging drop method. Structural analyses were carried out using DALI [22], and PyMOL (http://www.pymol.org). Figures were generated using PyMOL. The UclD^LD structure was refined to final Rwork/Rfree values of 24.8%/30.6%; the UcaD^LD structure was refined to final Rwork/Rfree values of 16.9%/19.2%, respectively (Table A in S1 Text). For UcaD^LD:monosaccharide complexes, coordinates and structure factors have been deposited in the PDB with IDs 7MZQ (Fuc complex), 7MZR (Glc complex), and 7MZS (Gal complex).
157 flash-cooling in liquid nitrogen. X-ray diffraction data were collected from a single crystal at the
158 Australian Synchrotron MX2 beamline, using a wavelength of 0.9537 Å. Data collection was
159 performed using Blu-Ice software, indexed and integrated using MOSFLM and scaled with
160 AIMLESS within the CCP4 suite. The structure was solved by molecular replacement using
161 PHASER [23] and UclDLD as the template. The model was refined using Phenix and structure
The structure was refined to final Rwork/Rfree values
163 of 16.9 %/19.2 %, respectively (Table A in S1 Text). The final UcaDLD model contains residues 21-
165 disordered or flexible conformation in the crystals. Coordinates and structure factors have been
166 deposited in the PDB with ID 7MZO.
167 UcaDLD:monosaccharide complexes: Pre-formed UcaDLD and UclDLD crystals were soaked with
168 0.1-0.2 M of the monosaccharides Fuc, Glc, Gal, GlcNAc, GalNAc or Neu5Ac for 48 hours in the
169 crystallisation solution (0.1 M sodium citrate buffer pH 4.5-5.5, 2-3 M NaCl). The crystals were
170 cryoprotected in Paratone-N and flash-cooled at 100 K. X-ray diffraction data were collected from
171 single crystals on the MX2 beamline at the Australian Synchrotron, using a wavelength of 0.9537 Å.
172 The data-sets was processed using either MOSFLM (Gal complex), or XDS (Fuc and Glc complexes)
173 [27] and scaled using AIMLESS in the CCP4 suite. The structures were solved by molecular
174 replacement using PHASER [23] and ligand-free UcaDLD as the template. The models were refined
175 using Phenix, and structure validations were performed using MolProbity. Coordinates and
176 structure factors have been deposited in the PDB with IDs 7MZQ (Fuc complex), 7MZR (Glc
177 complex), and 7MZS (Gal complex).

OxyR-6xHis = target: T1, OxyR-6xHis (UniProt P0ACQ4); assay: EMSA
T1 sequence: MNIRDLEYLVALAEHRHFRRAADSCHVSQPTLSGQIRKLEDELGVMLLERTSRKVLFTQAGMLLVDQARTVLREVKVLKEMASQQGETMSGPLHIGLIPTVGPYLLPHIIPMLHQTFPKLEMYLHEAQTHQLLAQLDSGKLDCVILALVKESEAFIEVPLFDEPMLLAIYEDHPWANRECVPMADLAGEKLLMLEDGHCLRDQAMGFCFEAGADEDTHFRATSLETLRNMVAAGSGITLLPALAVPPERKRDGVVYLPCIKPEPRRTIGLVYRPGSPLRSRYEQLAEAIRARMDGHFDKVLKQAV

UclD = settings: galactose at 1 mM alone
UclD^LD [1] = target: T2, UclD^LD (Escherichia coli, UniProt Q8GA71); assay: SPR analysis of glycans on immobilized UclD lectin domain; design: species or system E. coli strain F11; settings: single cycle kinetics, read-out: KD, binding affinity to UclD^LD determined by SPR
T2 sequence (Q8GA71 21-221): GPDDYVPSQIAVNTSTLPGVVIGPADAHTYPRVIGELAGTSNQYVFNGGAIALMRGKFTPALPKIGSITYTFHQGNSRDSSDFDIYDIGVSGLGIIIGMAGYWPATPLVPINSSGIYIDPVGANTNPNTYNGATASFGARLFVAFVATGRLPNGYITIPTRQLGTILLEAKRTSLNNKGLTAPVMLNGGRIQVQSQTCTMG
Method: 126 described with minor modifications. Briefly, UclD and UcaD were immobilized onto flow cells
127 of a CM5 sensor chip using amine coupling at 20 µg/mL in 10 mM sodium acetate pH 4.0 and at a
128 flow rate of 5 µL/min for 10 minutes. Glycans were chosen based on positive glycan array results for
129 each of the proteins with each glycan run across a dilution range starting at a maximum concentration
130 of 100 µM and minimum concentrations tested being 1.6 nM using single cycle kinetics. Results were
131 analysed using the Biacore T200 evaluation software.
132 Crystallization and crystal structure determination.
133 UclDLD: UclDLD crystals were produced using the hanging drop method, with drops containing 1 µL
134 of protein (10 mg/mL) and 1 µL of well solution (20-25% w/v PEG 3350, 0.1 M Bis-Tris propane
135 pH 6.5, 0.2 M sodium iodide). The crystals appeared within 1-5 days. The crystals were cryoprotected
136 in glycerol (80% well solution and 20% (v/v) glycerol) before flash-cooling in liquid nitrogen. X-ray
137 diffraction data were collected from a single crystal at the Australian Synchrotron MX1 beamline,
138 using a wavelength of 0.9537 Å. Data collection was performed using Blu -Ice software, indexed
139 and integrated using MOSFLM and scaled with AIMLESS within the CCP4 suite. Molecular […]
142 we determined the UclDLD structure by SAD phasing using the CRANK2 [19] pipeline of the CCP4 […]

UclD^LD [2] = target: T2, UclD^LD; assay: Glycan array analysis (358 glycan structures), UclD; settings: yes/no binding

| Compound | Monosaccharide electron density / binding in soaked UcaD^LD crystals (UcaD^LD) | also measured |
| --- | --- | --- |
| C[C@H](O)[C@@H](O)[C@@H](O)[C@H](O)C=O [Fuc, fucose] | Clear monosaccharide electron density was observed | – |
| OC[C@H]1OC(O)[C@H](O)[C@@H](O)[C@@H]1O (some centres unmarked) [Glc, glucose] | Clear monosaccharide electron density was observed | – |
| AATAGGTCGCTCATTTCAGGGTAAAGCATATCTTTTGTCATTACCAACACAATAAATATGGTTTTTGATCGTTTTTCCCGATCGTTTTAGCAATCATGATATGTGCAATCTATCATACGCTGGTTATCGATCGGTAAAAACATTTTGAAAATGATTGTTTTGTTGGGGATGATTGCTGAACAAATGATCAATACTGGAATTAAACAGGAATTCATTTTATGAAAATAAAAGTTATAGCATTGGCTACATTTGTTTCTGCTG (double strand) [Cy3-Pucl-78T] | – | binding (OxyR-6xHis): binds |
| O=C[C@H](O)[C@@H](O)[C@@H](O)[C@H](O)CO [galactose] | Clear monosaccharide electron density was observed | Response 15 seconds after injection-B (UclD): 6.3 RU and ~ 6.3 RU |
| CC(=O)N[C@H]1[C@H]([C@H](O)[C@H](O)CO)O[C@@](O[C@H]2[C@@H](O)[C@@H](CO)O[C@@H](O[C@@H]([C@H](O[C@@H]3O[C@@H](C)[C@@H](O)[C@@H](O)[C@@H]3O)[C@H](C=O)NC(C)=O)[C@H](O)CO)[C@@H]2O)(C(=O)O)C[C@@H]1O [SialylLewis X, Neu5Acα2-3Galβ1-4(Fucα1–3)GlcNAc] | – | Kd (UclD^LD [1]): 2.52 µM |
| lactosyl ceramide | – | Binding to UclD^LD on glycan array (UclD^LD [2]): did not identify interactions |
| asialo-GM1 | – | Binding to UclD^LD on glycan array (UclD^LD [2]): did not identify interactions |
| CO[C@@H]1O[C@H](CO)[C@H](O)[C@H](O)[C@H]1O [β-methyl-galactose] | did not observe binding | – |
| CC(=O)N[C@H]1[C@H]([C@H](O)[C@H](O)CO)OC(O)(C(=O)O)C[C@@H]1O (some centres unmarked) [Neu5Ac, N-acetylneuraminic acid] | not | – |
| CC(=O)N[C@@H]1[C@@H](O)[C@H](O)[C@@H](CO)O[C@H]1O [GlcNAc, N-acetylglucosamine] | not | – |
